In patent US12102648B2, “Orally-bioavailable nucleoside analogs” (priority 2021, dated 2024) one finds Papp A→B, Papp B→A and efflux ratio data, which are given here for 20 molecules.

The series is described as follows: in vitro. As to conditions: human. The format is in vitro ADME. The gist of the method: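 Permeability measured in both directions across 19-day Caco-2 layers with TEER above 600 […], incubated at 37° C without shaking; donor and receiver sampled at 10 and 90 min for LC/MS/MS. Derived values: Papp (cm/s), efflux ratio, recovery.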
Setting [1] is: Caco-2 monolayer, apical to basolateral, 90-minute incubation, read-out: Papp, A-B.
[2] abbreviates: Caco-2 monolayer, basolateral to apical, 90-minute incubation, read-out: Papp, B-A.
The mark [3] stands for this setting: Caco-2 monolayer, ER>2 indicates potential efflux transporter substrate, read-out: ER (efflux ratio).

Where two headings read alike, the source gives them in different places.

The term Papp A→B denotes how fast a substance crosses the layer from the apical side. In general, Papp B→A refers to the apparent permeability from the basolateral to the apical side of a cell layer. Turning to `CC(C)[C@H](N)C(=O)Nc1ncnn2c([C@]3(C#N)O[C@H](COC(=O)CC4CCCCC4)[C@@H](O)[C@H]3O)ccc12` [Compound 112, [(2R,3S,4R,5R)-5-{4-[(2S)-2-amino-3-methylbutanamido]pyrrolo[2,1-f][1,2,4]triazin-7-yl}-5-cyano-3,4-dihydroxyoxolan-2-yl]methyl 2-cyclohexylacetate], for the setting “Caco-2”, the Papp A→B at 90 min amounted to 0.14 ×10⁻⁶ cm/s, the Papp B→A at 90 min came out at 6.1 ×10⁻⁶ cm/s and the efflux ratio at 90 min amounted to 44.
For the molecule `CC(C)[C@H](N)C(=O)Nc1ncnn2c([C@]3(C#N)O[C@H](COC(=O)Cc4ccccc4)[C@@H](O)[C@H]3O)ccc12` [Compound 113], under setting [1], the apical-to-basolateral permeability (Papp A→B) at 90 min turned out to be 0.01 ×10⁻⁶ cm/s. Also, the Papp B→A at 90 min under setting [2] is 4.8 ×10⁻⁶ cm/s. For the same molecule, the efflux ratio at 90 min under setting [3] is 320.
For `CCC(=O)OC[C@H]1O[C@@](C#N)(c2ccc3c(NC(=O)[C@@H](N)C(C)C)ncnn23)[C@H](O)[C@@H]1O` [Compound 115, ((2R,3S,4R,5R)-5-(4-((S)-2-amino-3-methylbutanamido)pyrrolo[2,1-f][1,2,4]triazin-7-yl)-5-cyano-3,4-dihydroxytetrahydrofuran-2-yl)methyl propionate], under “Caco-2”, the apparent permeability from apical to basolateral (Papp A→B) at 90 min worked out at 0.04 ×10⁻⁶ cm/s, the Papp B→A at 90 min is 1.7 ×10⁻⁶ cm/s and the efflux ratio at 90 min stood at 47.
As to `CC(C)C(=O)OC[C@H]1O[C@@](C#N)(c2ccc3c(NC(=O)[C@@H](N)C(C)C)ncnn23)[C@H](O)[C@@H]1O` [Compound 116, [(2R,3S,4R,5R)-5-{4-[(2S)-2-amino-3-methylbutanamido]pyrrolo[2,1-f][1,2,4]triazin-7-yl}-5-cyano-3,4-dihydroxyoxolan-2-yl]methyl 2-methylpropanoate], where the note is “Caco-2”, the Papp A→B at 90 min came out at 0.15 ×10⁻⁶ cm/s, the basolateral-to-apical permeability (Papp B→A) at 90 min was determined as 1.2 ×10⁻⁶ cm/s and the efflux ratio at 90 min came to 7.9.
Turning to `CC(C)CC(=O)OC[C@H]1O[C@@](C#N)(c2ccc3c(NC(=O)[C@@H](N)C(C)C)ncnn23)[C@H](O)[C@@H]1O` [Compound 117, [(2R,3S,4R,5R)-5-{4-[(2S)-2-amino-3-methylbutanamido]pyrrolo[2,1-f][1,2,4]triazin-7-yl}-5-cyano-3,4-dihydroxyoxolan-2-yl]methyl 3-methylbutanoate], for the setting “Caco-2”, the apparent permeability from apical to basolateral (Papp A→B) at 90 min was determined as 0.22 ×10⁻⁶ cm/s, the basolateral-to-apical permeability (Papp B→A) at 90 min is 3.3 ×10⁻⁶ cm/s and the efflux ratio at 90 min was determined as 15.
Regarding `CC(C)[C@H](N)C(=O)O[C@H]1[C@@H](O)[C@](C#N)(c2ccc3c(NC(=O)c4ccccc4)ncnn23)O[C@@H]1CO` [Compound 128, (2R,3S,4R,5R)-5-(4-benzamidopyrrolo[2,1-f][1,2,4]triazin-7-yl)-5-cyano-4-hydroxy-2-(hydroxymethyl)tetrahydrofuran-3-yl L-valinate], for the setting “Caco-2”, the apical-to-basolateral permeability (Papp A→B) at 90 min is 0.3 ×10⁻⁶ cm/s, the Papp B→A at 90 min was 6.4 ×10⁻⁶ cm/s and the efflux ratio at 90 min amounted to 22.
On to `CC(C)[C@H](N)C(=O)Nc1ncnn2c([C@]3(C#N)O[C@H](CO)[C@@H](OC(=O)[C@@H](N)C(C)C)[C@H]3O)ccc12` [Compound 129, (2R,3S,4R,5R)-5-{4-[(2S)-2-amino-3-methylbutanamido]pyrrolo[2,1-f][1,2,4]triazin-7-yl}-5-cyano-4-hydroxy-2-(hydroxymethyl)oxolan-3-yl (2S)-2-amino-3-methylbutanoate], for which, under “Caco-2”, the Papp A→B at 90 min came to 0.03 ×10⁻⁶ cm/s, the Papp B→A at 90 min came out at 0.02 ×10⁻⁶ cm/s and the efflux ratio at 90 min turned out to be 0.7.
In the case of `N#C[C@@]1(c2ccc3c(NC(=O)[C@@H](N)Cc4ccc(F)cc4)ncnn23)O[C@H](CO)[C@@H](OC(=O)CC2CCCCC2)[C@H]1O` [Compound 137, (2R,3S,4R,5R)-5-(4-((S)-2-amino-3-(4-fluorophenyl)propanamido)pyrrolo[2,1-f][1,2,4]triazin-7-yl)-5-cyano-4-hydroxy-2-(hydroxymethyl)tetrahydrofuran-3-yl 2-cyclohexylacetate], for the setting “Caco-2”, the apical-to-basolateral permeability (Papp A→B) at 90 min was 0.6 ×10⁻⁶ cm/s, the Papp B→A at 90 min worked out at 2.7 ×10⁻⁶ cm/s and the efflux ratio at 90 min stood at 4.5.
On the same counts, the results for `CC(C)[C@H](N)C(=O)Nc1ncnn2c([C@]3(C#N)O[C@H](CO)[C@@H](OC(=O)CC4CCCCC4)[C@H]3O)ccc12` [Compound 139, (2R,3S,4R,5R)-5-(4-((S)-2-amino-3-methylbutanamido)pyrrolo[2,1-f][1,2,4]triazin-7-yl)-5-cyano-4-hydroxy-2-(hydroxymethyl)tetrahydrofuran-3-yl 2-cyclohexylacetate] are 0.18 ×10⁻⁶ cm/s, 6.1 ×10⁻⁶ cm/s and 34.
For `CCCCCOC(=O)Nc1ncnn2c([C@]3(C#N)O[C@H](CO)[C@@H](OC(=O)Cc4ccccc4)[C@H]3O)ccc12` [Compound 141, (2R,3S,4R,5R)-5-cyano-4-hydroxy-2-(hydroxymethyl)-5-(4-(((pentyloxy)carbonyl)amino)pyrrolo[2,1-f][1,2,4]triazin-7-yl)tetrahydrofuran-3-yl 2-phenylacetate], under setting [1], the Papp A→B at 90 min came to 0.14 ×10⁻⁶ cm/s. In addition, the Papp B→A at 90 min under setting [2] is 0.04 ×10⁻⁶ cm/s. In addition, the efflux ratio at 90 min under setting [3] is 0.33.
As to `N#C[C@@]1(c2ccc3c(NC(=O)c4ccccc4)ncnn23)O[C@H](CO)[C@@H](OC(=O)Cc2ccccc2)[C@H]1O` [Compound 143, (2R,3S,4R,5R)-5-(4-benzamidopyrrolo[2,1-f][1,2,4]triazin-7-yl)-5-cyano-4-hydroxy-2-(hydroxymethyl)tetrahydrofuran-3-yl 2-phenylacetate], under setting [1], the Papp A→B at 90 min turned out to be 0.67 ×10⁻⁶ cm/s. Further, the Papp B→A at 90 min under setting [2] came out at 0.12 ×10⁻⁶ cm/s. Further, the efflux ratio at 90 min under setting [3] is 0.18.
As for `CC(C)[C@H](N)C(=O)Nc1ncnn2c([C@]3(C#N)O[C@H](CO)[C@@H](OC(=O)Cc4ccccc4)[C@H]3O)ccc12` [Compound 144, (2R,3S,4R,5R)-5-(4-((S)-2-amino-3-methylbutanamido)pyrrolo[2,1-f][1,2,4]triazin-7-yl)-5-cyano-4-hydroxy-2-(hydroxymethyl)tetrahydrofuran-3-yl 2-phenylacetate], under setting [1], the Papp A→B at 90 min was determined as 0.03 ×10⁻⁶ cm/s. Moreover, the Papp B→A at 90 min under setting [2] turned out to be 1.8 ×10⁻⁶ cm/s. Besides, under setting [3], the efflux ratio at 90 min is 53.
Regarding `CNc1nc(N)nc2c1ncn2[C@@H]1O[C@H](COC(C)=O)[C@@H](O)[C@@]1(C)F` [Compound 178, ((2R,3R,4R,5R)-5-(2-amino-6-(methylamino)-9H-purin-9-yl)-4-fluoro-3-hydroxy-4-methyltetrahydrofuran-2-yl)methyl acetate], for the setting “Caco-2”, the apparent permeability from apical to basolateral (Papp A→B) at 90 min stood at 6.7 ×10⁻⁶ cm/s, the basolateral-to-apical permeability (Papp B→A) at 90 min came out at 4.4 ×10⁻⁶ cm/s and the efflux ratio at 90 min was found to be 0.7.
For `CCC(=O)OC[C@H]1O[C@@H](n2cnc3c(NC)nc(N)nc32)[C@](C)(F)[C@@H]1O` [Compound 180, ((2R,3R,4R,5R)-5-(2-amino-6-(methylamino)-9H-purin-9-yl)-4-fluoro-3-hydroxy-4-methyltetrahydrofuran-2-yl)methyl propionate], under setting [1], the Papp A→B at 90 min came to 4.6 ×10⁻⁶ cm/s. In addition, under setting [2], the Papp B→A at 90 min amounted to 7.6 ×10⁻⁶ cm/s. Besides, the efflux ratio at 90 min under setting [3] amounted to 1.6.
In the case of `CNc1nc(N)nc2c1ncn2[C@@H]1O[C@H](COC(C)=O)[C@@H](OC(=O)CC(C)C)[C@@]1(C)F` [Compound 186, (2R,3R,4R,5R)-2-(acetoxymethyl)-5-(2-amino-6-(methylamino)-9H-purin-9-yl)-4-fluoro-4-methyltetrahydrofuran-3-yl 3-methylbutanoate], under “Caco-2”, the Papp A→B at 90 min was found to be 19 ×10⁻⁶ cm/s, the basolateral-to-apical permeability (Papp B→A) at 90 min was found to be 7.2 ×10⁻⁶ cm/s and the efflux ratio at 90 min was 0.38.
As for `CNc1nc(N)nc2c1ncn2[C@@H]1O[C@H](COC(=O)C(C)C)[C@@H](OC(=O)CC(C)C)[C@@]1(C)F` [Compound 187, (2R,3R,4R,5R)-5-(2-amino-6-(methylamino)-9H-purin-9-yl)-4-fluoro-2-((isobutyryloxy)methyl)-4-methyltetrahydrofuran-3-yl 3-methylbutanoate], for the setting “Caco-2”, the Papp A→B at 90 min came to 11 ×10⁻⁶ cm/s, the Papp B→A at 90 min worked out at 2.4 ×10⁻⁶ cm/s and the efflux ratio at 90 min turned out to be 0.22.
On to `CNc1nc(N)nc2c1ncn2[C@@H]1O[C@H](COC(C)=O)[C@@H](OC(=O)CC2CCCCC2)[C@@]1(C)F` [Compound 194, (2R,3R,4R,5R)-2-(acetoxymethyl)-5-(2-amino-6-(methylamino)-9H-purin-9-yl)-4-fluoro-4-methyltetrahydrofuran-3-yl 2-cyclohexylacetate], for which, under “Caco-2”, the Papp A→B at 90 min turned out to be 12 ×10⁻⁶ cm/s, the apparent permeability from basolateral to apical (Papp B→A) at 90 min came to 2.1 ×10⁻⁶ cm/s and the efflux ratio at 90 min came to 0.18.
As for `CNc1nc(N)nc2c1ncn2[C@@H]1O[C@H](COC(=O)C(C)C)[C@@H](OC(=O)CC2CCCCC2)[C@@]1(C)F` [Compound 195, ((2R,3R,4R,5R)-5-(2-amino-6-(methylamino)-9H-purin-9-yl)-3-(2-cyclohexylacetoxy)-4-fluoro-4-methyltetrahydrofuran-2-yl)methyl isobutyrate], for the setting “Caco-2”, the apparent permeability from apical to basolateral (Papp A→B) at 90 min is 6.3 ×10⁻⁶ cm/s, the apparent permeability from basolateral to apical (Papp B→A) at 90 min worked out at 1.1 ×10⁻⁶ cm/s and the efflux ratio at 90 min was determined as 0.18.
On to `CNc1nc(N)nc2c1ncn2[C@@H]1O[C@H](COC(C)=O)[C@@H](OC(=O)Cc2ccccc2)[C@@]1(C)F` [Compound 210, (2R,3R,4R,5R)-2-(acetoxymethyl)-5-(2-amino-6-(methylamino)-9H-purin-9-yl)-4-fluoro-4-methyltetrahydrofuran-3-yl 2-phenylacetate], for which, under setting [1], the Papp A→B at 90 min amounted to 15 ×10⁻⁶ cm/s. The Papp B→A at 90 min under setting [2] was found to be 5.8 ×10⁻⁶ cm/s. Moreover, the efflux ratio at 90 min under setting [3] stood at 0.38.
As for `CNc1nc(N)nc2c1ncn2[C@@H]1O[C@H](COC(=O)C(C)C)[C@@H](OC(=O)Cc2ccccc2)[C@@]1(C)F` [Compound 211, ((2R,3R,4R,5R)-5-(2-amino-6-(methylamino)-9H-purin-9-yl)-4-fluoro-4-methyl-3-(2-phenylacetoxy)tetrahydrofuran-2-yl)methyl isobutyrate], the apparent permeability from apical to basolateral (Papp A→B) at 90 min under setting [1] turned out to be 6.2 ×10⁻⁶ cm/s. Besides, the Papp B→A at 90 min under setting [2] came out at 4.8 ×10⁻⁶ cm/s. For the same molecule, under setting [3], the efflux ratio at 90 min came out at 0.8.
